# Values of other authors in patent publication US20250018217A1, “PH[…] THERAPY APPARATUS AND METHODS FOR TREATING ORAL DISEASE” (Biolux Group SA, priority 2022, published 2025).
# Entries after “also recorded” stand apart in the source; their conditions may differ. Read-outs that look alike come from different tables or passages of the source.
# How the values were obtained:
# [1] = tested on: microbial species
# [2] = daily oral supplement of 2,000 IU to 6,000 IU in adults, within 3 months
compound,measurement,setting,value
COc1cc(/C=C/C(=O)CC(=O)/C=C/c2ccc(O)c(OC)c2)ccc1O [Curcumin],Antimicrobial activity (in solution),"[1]; 0.75 to 5 g/l, excitation wavelength 547 nm",[50]S. mutans; also recorded: [51]L. acidophilus
Cc1cc(=[N+](C)C)cc2sc3cc(N(C)C)cc(C)c3nc1-2.[Cl-] [Dimethyl methylene blue],Antimicrobial activity (in solution),"[1]; 800 um, excitation wavelength 635-652",[12]A. baumannii
O=C1OC2(c3ccccc31)c1cc(I)c(O)c(I)c1Oc1c2cc(I)c(O)c1I [Erythrosine],Antimicrobial activity (in solution),[1]; excitation wavelength 500-550 nm,[64]S. mutans
CN(C)c1ccc2nc3ccc(=[N+](C)C)cc-3sc2c1 [Methylene blue],Antimicrobial activity (in solution),"[1]; 25 ug/ml, excitation wavelength 632 nm",[8] Various
CCNc1cc2[s+]c3cc(NCC)c(C)cc3nc2cc1C.[Cl-] [New Methylene blue],Antimicrobial activity (in solution),"[1]; 00 uM, excitation wavelength 635-652",[17]A. baumannii
O=C([O-])c1c(Cl)c(Cl)c(Cl)c(Cl)c1-c1c2cc(I)c(=O)c(I)c-2oc2c(I)c([O-])c(I)cc12.[Na+].[Na+] [Rose Bengal],Antimicrobial activity (in solution),"[1]; 10 um, excitation wavelength 532 nm",[26]E. faecalis
Cc1cc2nc3ccc(N(C)C)cc3[s+]c2cc1N.[Cl-] [Toluidine blue O],Antimicrobial activity (in solution),"[1]; 100 mg/l, excitation wavelength 410 nm-660 nm",[21]E. coli
Phthalocynine,Antimicrobial activity (in solution),[1]; excitation wavelength 670 nm,[74]A. hidrophila
Sulfonic porphyrins (TPPS),Antimicrobial activity (in solution),[1]; no concentration or wavelength printed (TPPS),[42]S. aureus
vitamin D,Blood levels of vitamin D,[2],0.04 µg/mL
